Assay results published in PubChem BioAssay AID192 (DTP/NCI, 2004).
“And” between values parts separate entries of the source, which are not always exact repeats. Equal values may be shown once. Toxic doses and inconclusive results are not listed. Square brackets hold non-standard residues; d marks the D form. Peptide text beside a SMILES is read from it. ξ: configuration not given here. ξE = NC(CCC(=O)O)C(=O)O; Abu = CC[CH](N)C(=O)O

Tested on: BDF1 mice, B16 melanoma ip, median survival T/C
Assay: NCI In Vivo Anticancer Drug Screen. Data for tumor model B16 Melanoma (intraperitoneal) in B6D2F1 (BDF1) mice
Conditions: endpoint: median survival time, higher = longer survival
Procedure, shortened: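 In this screen, activity was judged from survival or tumor size in treated versus vehicle-treated tumor-bearing mice, reported as T/C.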

[1] = dose: 50.0 mg/kg/injection, schedule: Q01DX009 (ip), vehicle: saline
[2] = dose: 100.0 mg/kg/injection, schedule: Q01DX009 (ip), vehicle: saline
[3] = dose: 200.0 mg/kg/injection, schedule: Q01DX009 (ip), vehicle: saline
[4] = dose: 400.0 mg/kg/injection, schedule: Q01DX009 (ip), vehicle: saline
[5] = dose: 12.5 mg/kg/injection, schedule: Q01DX009 (ip), vehicle: Klucel (hydroxypropylcellulose) (HPC)
[6] = dose: 25.0 mg/kg/injection, schedule: Q01DX009 (ip), vehicle: Klucel (hydroxypropylcellulose) (HPC)
[7] = dose: 50.0 mg/kg/injection, schedule: Q01DX009 (ip), vehicle: Klucel (hydroxypropylcellulose) (HPC)
[8] = dose: 100.0 mg/kg/injection, schedule: Q01DX009 (ip), vehicle: Klucel (hydroxypropylcellulose) (HPC)
[9] = dose: 200.0 mg/kg/injection, schedule: Q01DX009 (ip), vehicle: Klucel (hydroxypropylcellulose) (HPC)
[10] = dose: 25.0 mg/kg/injection, schedule: Q01DX009 (ip), vehicle: saline
[11] = dose: 12.5 mg/kg/injection, schedule: Q01DX009 (ip), vehicle: saline with Tween-80
[12] = dose: 25.0 mg/kg/injection, schedule: Q01DX009 (ip), vehicle: saline with Tween-80
[13] = dose: 6.25 mg/kg/injection, schedule: Q01DX009 (ip), vehicle: Klucel (hydroxypropylcellulose) (HPC)
[14] = dose: 3.12 mg/kg/injection, schedule: Q01DX009 (ip), vehicle: saline
[15] = dose: 6.25 mg/kg/injection, schedule: Q01DX009 (ip), vehicle: saline

NCC(=O)NCC(=O)NC(CCC(=O)O)C(=O)O (stereo not drawn) (H-Gly-Gly-[ξE]-OH)
T/C [1]: 101 % of control
T/C [2]: 97 % of control
T/C [3]: 94 % of control
T/C [4]: 94 % of control

O=C(O)c1cccnc1
T/C [5]: 112 % of control
T/C [6]: 105 % of control
T/C [7]: 97 % of control
T/C [8]: 100 % of control

NC(=S)SCCC(=O)O
T/C [8]: 96 % of control
T/C [9]: 86 % of control

CN1CCC=C(C(=O)N2c3ccccc3Sc3ccccc32)C1
T/C [10]: 102 % of control
T/C [1]: 96 % of control

O=S(=O)(O)C(O)c1cccnc1 (stereo not given)
T/C [11]: 102 % of control
T/C [12]: 86 % of control
T/C (dose: 50.0 mg/kg/injection, schedule: Q01DX009 (ip), vehicle: saline with Tween-80): 89 % of control

CCC(N)C(=O)NC(C(N)=O)C(C)C (stereo not given) (H-[Abu]-Val-NH2; configuration not given here)
T/C [1]: 90 % of control
T/C [2]: 100 % of control
T/C [3]: 110 % of control
T/C [4]: 100 % of control

COc1cc(C(=O)O)c2c(c1C)OC(=O)c1c(C)cc(O)c(C=O)c1O2
T/C (dose: 1.39 mg/kg/injection, schedule: Q01DX009 (ip), vehicle: saline with Tween-80): 97 % of control
T/C (dose: 2.78 mg/kg/injection, schedule: Q01DX009 (ip), vehicle: saline with Tween-80): 99 % of control
T/C (dose: 5.56 mg/kg/injection, schedule: Q01DX009 (ip), vehicle: saline with Tween-80): 110 % of control
T/C [13]: 111 % of control
T/C (dose: 11.0 mg/kg/injection, schedule: Q01DX009 (ip), vehicle: saline with Tween-80): 158 % of control
T/C [5]: 117 % of control
T/C [11]: 150 % of control
T/C [6]: 122 % of control
T/C [12]: 160 % of control
T/C (dose: 25.0 mg/kg/injection, schedule: Q04DX003 (ip), vehicle: saline with Tween-80): 113 % of control
T/C (dose: 50.0 mg/kg/injection, schedule: Q04DX003 (ip), vehicle: saline with Tween-80): 105 % of control

O=C(Cn1cc(F)c(=O)[nH]c1=O)c1ccco1
T/C [7]: 94 % of control
T/C [8]: 100 % of control
T/C [9]: 94 % of control

Cc1cc(OC(=O)Nc2ccccc2Cl)ccc1[N+](=O)[O-]
T/C (dose: 100.0 mg/kg/injection, schedule: Q04DX003 (ip), vehicle: Klucel (hydroxypropylcellulose) (HPC)): 96 % of control
T/C (dose: 200.0 mg/kg/injection, schedule: Q04DX003 (ip), vehicle: Klucel (hydroxypropylcellulose) (HPC)): 96 % of control
T/C (dose: 400.0 mg/kg/injection, schedule: Q04DX003 (ip), vehicle: Klucel (hydroxypropylcellulose) (HPC)): 93 % of control

CCc1cccc(CC)c1N1C(=O)C=CC1=O
T/C (dose: 0.2 mg/kg/injection, schedule: Q01DX009 (ip), vehicle: saline with Tween-80): 97 % of control
T/C (dose: 0.39 mg/kg/injection, schedule: Q01DX009 (ip), vehicle: saline with Tween-80): 99 % of control
T/C (dose: 0.78 mg/kg/injection, schedule: Q01DX009 (ip), vehicle: saline with Tween-80): 92 % of control
T/C (dose: 1.56 mg/kg/injection, schedule: Q01DX009 (ip), vehicle: saline with Tween-80): 86 % of control and 90 % of control

COc1cccc2c1C(=O)c1c(O)c3c(c(O)c1C2=O)C[C@@](O)(C(=O)COC(=O)Cc1ccccc1)C[C@@H]3OC1CC(N)C(O)C(C)O1 (stereo not given in full)
T/C (dose: 0.5 mg/kg/injection, schedule: Q01DX009 (ip), vehicle: saline with Tween-80): 151 % of control and 186 % of control
T/C (dose: 1.0 mg/kg/injection, schedule: Q01DX009 (ip), vehicle: saline with Tween-80): 165 % of control and 186 % of control
T/C (dose: 2.0 mg/kg/injection, schedule: Q01DX009 (ip), vehicle: saline with Tween-80): 172 % of control and 232 % of control

CNC(=O)Nc1ccc(C(=O)NC(C)C)cc1
T/C [6]: 98 % of control
T/C [7]: 97 % of control
T/C [8]: 96 % of control
T/C [9]: 100 % of control
T/C (dose: 400.0 mg/kg/injection, schedule: Q01DX009 (ip), vehicle: Klucel (hydroxypropylcellulose) (HPC)): 88 % of control

C=C1Sc2ccccc2N1C
T/C [5]: 96 % of control
T/C [6]: 94 % of control

Cc1ccc2c(Nc3ccc(NS(C)(=O)=O)cc3)c3ccccc3nc2c1C
T/C (dose: 5.0 mg/kg/injection, schedule: Q01DX009 (ip), vehicle: saline sonified): 90 % of control
T/C (dose: 20.0 mg/kg/injection, schedule: Q01DX009 (ip), vehicle: other): 117 % of control
T/C (dose: 20.0 mg/kg/injection, schedule: Q01DX009 (ip), vehicle: saline with Tween-80): 158 % of control
T/C (dose: 40.0 mg/kg/injection, schedule: Q01DX009 (ip), vehicle: saline sonified): 185 % of control
T/C (dose: 40.0 mg/kg/injection, schedule: Q01DX009 (ip), vehicle: saline with Tween-80): 163 % of control
T/C [1]: 100 % of control

NC(=O)c1[nH]nc(C2OC(CO)C(O)C2O)c1O (stereo not given)
T/C (dose: 0.08 mg/kg/injection, schedule: Q01DX009 (ip), vehicle: saline): 100 % of control
T/C (dose: 0.12 mg/kg/injection, schedule: Q01DX009 (ip), vehicle: saline): 110 % of control
T/C (dose: 0.16 mg/kg/injection, schedule: Q01DX009 (ip), vehicle: saline): 111 % of control
T/C (dose: 0.31 mg/kg/injection, schedule: Q01DX009 (ip), vehicle: saline): 111 % of control
T/C (dose: 0.5 mg/kg/injection, schedule: Q01DX009 (ip), vehicle: saline): 115 % of control
T/C (dose: 0.62 mg/kg/injection, schedule: Q01DX009 (ip), vehicle: saline): 111 % of control
T/C (dose: 0.67 mg/kg/injection, schedule: Q01DX009 (ip), vehicle: saline): 123 % of control
T/C (dose: 1.25 mg/kg/injection, schedule: Q01DX009 (ip), vehicle: saline): 94 % of control
T/C (dose: 2.16 mg/kg/injection, schedule: Q01DX004 (ip), vehicle: saline): 113 % of control
T/C (dose: 3.6 mg/kg/injection, schedule: Q01DX004 (ip), vehicle: saline): 112 % of control
T/C (dose: 6.0 mg/kg/injection, schedule: Q01DX004 (ip), vehicle: saline): 109 % of control
T/C (dose: 10.0 mg/kg/injection, schedule: Q01DX004 (ip), vehicle: saline): 44 % of control

O=C(O)CC(=O)O.[NH-]CC[NH-].[Pt+2]
T/C (dose: 3.12 mg/kg/injection, schedule: Q01DX009 (ip), vehicle: dextrose): 119 % of control
T/C (dose: 12.5 mg/kg/injection, schedule: Q01DX009 (ip), vehicle: dextrose): 171 % of control
T/C [6]: 197 % of control and 214 % of control

N=C(N)SCCCCCCCCCCSC(=N)N
T/C (dose: 6.25 mg/kg/injection, schedule: Q01DX009 (ip), vehicle: saline with Tween-80): 95 % of control
T/C [11]: 88 % of control
T/C [12]: 86 % of control and 88 % of control

O=C(Nc1ccc2ccccc2c1)c1ccc(Cl)cc1Cl
T/C (dose: 100.0 mg/kg/injection, schedule: Q04DX003 (ip), vehicle: saline with Tween-80): 88 % of control
T/C (dose: 200.0 mg/kg/injection, schedule: Q04DX003 (ip), vehicle: saline with Tween-80): 91 % of control
T/C (dose: 400.0 mg/kg/injection, schedule: Q04DX003 (ip), vehicle: saline with Tween-80): 94 % of control

c1ccc2c[n+](CCCCCCCCCC[n+]3ccc4ccccc4c3)ccc2c1
T/C (dose: 2.5 mg/kg/injection, schedule: Q01DX009 (ip), vehicle: saline): 88 % of control
T/C (dose: 5.0 mg/kg/injection, schedule: Q01DX009 (ip), vehicle: saline): 97 % of control
T/C (dose: 10.0 mg/kg/injection, schedule: Q01DX009 (ip), vehicle: saline): 97 % of control
T/C (dose: 10.0 mg/kg/injection, schedule: Q04DX003 (ip), vehicle: saline): 92 % of control

NC(N)=NOCC[C@@H](N)C(=O)O
T/C [1]: 105 % of control
T/C [2]: 101 % of control
T/C [3]: 100 % of control
T/C [4]: 99 % of control

O=C1NC(c2ccccc2)C(=O)N1CCN(CCCl)CCCl (stereo not given)
T/C (dose: 1.56 mg/kg/injection, schedule: Q01DX009 (ip), vehicle: saline): 89 % of control and 109 % of control
T/C [14]: 95 % of control and 114 % of control
T/C [15]: 123 % of control
T/C [10]: 115 % of control

Cc1ccc(NC(=O)Nc2ccc(Cl)c(Cl)c2)c(C)c1
T/C [6]: 109 % of control
T/C [7]: 103 % of control
T/C [8]: 92 % of control

CC(C)=CCC1(O)C(=O)c2ccccc2C1(O)C(=O)O (stereo not given)
T/C [6]: 92 % of control
T/C [7]: 101 % of control
T/C [8]: 90 % of control
T/C [9]: 93 % of control

CNCCCN1c2ccccc2CCc2ccccc21
T/C [14]: 105 % of control
T/C [13]: 106 % of control
T/C [15]: 96 % of control
T/C [5]: 101 % of control
T/C (dose: 12.5 mg/kg/injection, schedule: Q01DX009 (ip), vehicle: saline): 102 % of control
T/C [6]: 100 % of control
T/C [10]: 87 % of control
T/C [7]: 86 % of control
T/C [1]: 101 % of control
